{
  "source": "patent US5219859A",
  "about": "“Indole derivatives, preparation processes and medicinal products containing them” (Lipha, Lyonnaise Industrielle Pharmaceutique, priority 1991, dated 1993)",
  "key": {"[1]": {"system": "intestinal absorption of cholesterol", "test": "Test C: measurement of the inhibition of intestinal absorption in rats", "format": "in vivo, male Wistar rats", "conditions": "Rattus norvegicus, po, fasted 24 hours, orally, with Triton WR-1339 I.V., [^3 H]cholesterol orally one hour later, blood three hours later, read-out: 50% effective dose (ED50), quantity of compound which inhibits the intestinal absorption of cholesterol by 50%", "experimental": "Test C: measurement of the inhibition of intestinal absorption in rats; male Wistar rats weighing 230-250 g, fasted for 24 hours, are treated simultaneously with the test product administered orally and with Triton WR-1339 administered I.V.; one hour later, they are again treated orally with [^3 H]cholesterol; three hours later, under ether anaesthesia, 1 ml of blood is withdrawn from the animals' retro-orbital sinus: the blood radioactivity, evaluated on 0.1 ml of serum, represents a measure of the absorption of the [^3 H]cholesterol administered. The results are expressed in the form of a 50% effective dose (ED50) in mg per kg of body weight, representing the quantity of compound which inhibits the intestinal absorption of cholesterol by 50%."}, "blood cholesterol level": {"system": "blood cholesterol level", "test": "Test B: measurement of the hypocholesterolaemic effect in rodents", "format": "in vivo, male Wistar rats", "conditions": "Rattus norvegicus, po; rats, diet enriched with 2.5% of cholesterol for 8 days; orally, 24 hours and 4 hours before sacrifice; read-out: 25% effective dose (ED25), quantity of compound which lowers the blood cholesterol level by 25%", "experimental": "Test B: measurement of the hypocholesterolaemic effect in rodents: male Wistar rats weighing 200-220 g are subjected to a diet enriched with 2.5% of cholesterol for 8 days; on the last two days, they are treated orally with the test product 24 hours and 4 hours before being sacrificed by exsanguination: the blood cholesterol level is evaluated on an aliquot fraction of serum by an automated enzymatic method. The results are expressed in the form of a 25% effective dose (ED25) in mg per kg of body weight, representing the quantity of compound which lowers the blood cholesterol level by 25%."}, "blood sugar level": {"system": "blood sugar level", "test": "Test D: measurement of the hypoglycaemic effect", "format": "in vivo, male Swiss mice", "conditions": "mice, orally, dose of 60 mg.kg, one hour", "experimental": "Test D: measurement of the hypoglycaemic effect: male Swiss mice weighing 26-28 g are treated orally with the test product. One hour later, the animals are sacrificed by exsanguination, and the blood sugar level is measured on an aliquot fraction of plasma by an enzymatic method employing glucose oxidase."}, "[2]": {"molecular_target": "T1, aortic ACAT (acylcoenzyme A:cholesterol acyltransferase) (Oryctolagus cuniculus, UniProt A0A5F9CPP4)", "T1 construct": "the aorta is removed, dissected and homogenised in order to prepare the microsomal fraction of it by ultracentrifugation; from tissue; host or cells: aorta microsomes of cholesterol-fed male New Zealand rabbits", "T1 sequence (A0A5F9CPP4 1-555)": "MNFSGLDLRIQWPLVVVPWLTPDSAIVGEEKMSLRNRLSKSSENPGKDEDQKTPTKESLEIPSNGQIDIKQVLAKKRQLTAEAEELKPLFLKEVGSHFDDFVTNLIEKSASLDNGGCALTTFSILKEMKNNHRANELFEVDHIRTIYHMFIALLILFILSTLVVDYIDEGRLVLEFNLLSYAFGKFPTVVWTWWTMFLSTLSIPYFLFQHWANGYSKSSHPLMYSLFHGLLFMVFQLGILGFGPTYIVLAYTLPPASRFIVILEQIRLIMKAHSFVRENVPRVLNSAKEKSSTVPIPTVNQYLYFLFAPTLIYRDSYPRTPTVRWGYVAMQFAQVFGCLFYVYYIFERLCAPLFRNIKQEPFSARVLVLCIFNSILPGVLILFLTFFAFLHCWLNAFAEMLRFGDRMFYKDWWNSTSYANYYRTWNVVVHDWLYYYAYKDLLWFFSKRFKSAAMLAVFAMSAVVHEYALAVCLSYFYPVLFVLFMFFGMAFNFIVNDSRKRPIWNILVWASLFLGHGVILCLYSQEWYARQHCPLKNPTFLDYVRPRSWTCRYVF", "test": "Test A: measurement of the inhibition of aortic ACAT in vitro in rabbits", "format": "biochemical, male New Zealand rabbits", "conditions": "microsomal fraction of aorta of rabbits on a diet enriched with 1.25% of cholesterol; [^14 C]oleylcoenzyme A; read-out: 50% inhibitory concentration (IC50), concentration of compound which inhibits the ACAT activity by 50%", "experimental": "Test A: measurement of the inhibition of aortic ACAT in virro in rabbits: male New Zealand rabbits weighing between 2.2 and 2.5 kg, subjected beforehand for 15 days to a diet enriched with 1.25% of cholesterol, are sacrificed by cervical dislocation; the aorta is removed, dissected and homogenised in order to prepare the microsomal fraction of it by ultracentrifugation; these microsomes are incubated in the presence of [^14 C]oleylcoenzyme A in accordance with the method described by P. J. GILLIES et al., Exp. and Mol. Pathol., 1986, 44, 329-339; the lipids are extracted from the incubate with a methanol/chloroform mixture and the [^14 C]oleylcholesterol is separated by TLC: the latter compound represents a measure of the ACAT activity, and the results were expressed in the form of a 50% inhibitory concentration (IC50), representing the concentration of compound which inhibits the ACAT activity by 50%."}},
  "data": [
    {"smiles": "CC(C)c1cccc(C(C)C)c1NC(=O)NCC1(c2cn(C)c3ccccc23)CCCC1", "note": "[compound No. 1, N^1-(2,6-Diisopropylphenyl)-N^2-[1-(1-methyl-3-indolyl)-cyclopentylmethyl]urea]", "values": [
      {"measurement": "ED50", "setting": "[1]", "value": 0.176, "unit": "mg/kg"},
      {"measurement": "ED25", "setting": "blood cholesterol level", "value": 0.098, "unit": "mg/kg"},
      {"measurement": "significant lowering of the blood sugar level", "setting": "blood sugar level", "value": 21, "unit": "%"},
      {"measurement": "IC50", "setting": "[2]", "value": 46, "unit": "nM"}
    ]}
  ]
}
